Assay results published in patent US12447156B2, “Treating progressive familial intrahepatic cholestasis (PFIC) with IBAT inhibitors” (ALBIREO AB, priority 2020, dated 2025).
“Also recorded” adds a separate entry of the source.

Tests used:
[1] = system: children with PFIC; experiment: Pooled analysis of PEDFIC 1 and PEDFIC 2 (up to 48 weeks): safety; type: in vivo, human
Excerpt: This example describes key outcomes with odevixibat in children with PFIC1 (familial intrahepatic cholestasis 1 [FIC1] deficiency) or PFIC2 ((bile salt export pump [BSEP] deficiency) based on pooled analysis of data from the phase 3 PEDFIC 1 (P1; NCT03566238) and PEDFIC 2 (P2; NCT03659916) studies. This pooled analysis covers up to 48 weeks of odevixibat treatment from P1 and through the planned P2 interim data cut. The following outcomes are described: change in serum bile acids (sBAs), change in pruritus score (measured using the PRUCISION scale; range: 0-4), evaluation of growth and sleep parameters, and safety monitoring. Mean changes in autotaxin (linked to cholestatic pruritus intensity) and plasma 7α-hydroxy-4-cholesten-3-one (p-C4; marker of bile acid synthesis) levels were also summarized.

[2] = system: children with PFIC; experiment: Pooled PEDFIC 1/2 subgroup analysis by concomitant UDCA and/or rifampicin; type: in vivo, human; conditions: for patients meeting criteria for serum bile acid response: after 48 weeks; for mean proportion of positive pruritus assessments (PPAs): over 48 weeks
Procedure: Methods: In the double-blind PEDFIC 1 study, children with PFIC1 or PFIC2 were randomized to placebo or odevixibat 40 or 120 μg/kg/day for 24 weeks. In PEDFIC 2, an ongoing, open label extension study, patients from PEDFIC 1 or new patients with any PFIC subtype received odevixibat 120 μg/kg/day. Concomitant UDCA and/or rifampicin were allowed if the patient was on a stable dose. This pooled analysis includes up to 48 weeks of odevixibat treatment from PEDFIC 1 and through the PEDFIC 2 interim data cut (37 weeks; range: 1-108 weeks). Pre-specified subgroup analyses evaluated the following outcomes based on use of UDCA and/or rifampicin: serum bile acid response (i.e., ≥70% reduction from baseline or serum bile acid levels ≤70 μmol/L after 48 weeks), proportion of positive pruritus assessments (PPAs) at the patient level (i.e., scratching score ≤1 or a ≥1-point drop from baseline on the validated PRUCISION instrument) over the 48-week treatment period, and treatment-emergent adverse events (TEAEs).

[3] = system: children with PFIC1 or PFIC2; experiment: PEDFIC 1: safety (treatment-emergent adverse events)
Excerpt: The primary safety analysis for PEDFIC 1 was based on the incidence of treatment-emergent adverse events (TEAEs). TEAEs were categorized by causality, severity, and seriousness for odevixibat and placebo. Other safety assessments included physical examinations, vital signs, laboratory tests, and abdominal ultrasounds (liver and spleen).
Secondary endpoints, exploratory endpoints, subgroup analyses, and safety data were summarized descriptively. Adverse events (AEs) were coded using Medical Dictionary for Regulatory Activities version 23.0.

[4] = patients not using UDCA and/or rifampicin
[5] = patients using UDCA and/or rifampicin
[6] = PEDFIC 1, 120 μg/kg/day, n = 19

CCCCC1(CCCC)CN(c2ccccc2)c2cc(SC)c(OCC(=O)N[C@@H](C(=O)N[C@@H](CC)C(=O)O)c3ccc(O)cc3)cc2S(=O)(=O)N1 [Odevixibat, 1,1-dioxo-3,3-dibutyl-5-phenyl-7-methylthio-8-(N-{(R)-α-[N-((S)-1-carboxypropyl)carbamoyl]-4-hydroxybenzyl}carbamoylmethoxy)-2,3,4,5-tetrahydro-1,2,5-benzothiadiazepine]
patients with drug-related TEAEs ([1]; pooled P1+P2, 32 of 77 patients): 42%
patients who experienced any TEAE ([1]; pooled P1+P2, 61 of 77 patients): 79%
drug-related serious TEAEs ([1]; pooled P1+P2, 77 patients): no drug-related serious TEAEs were reported
patients reporting severe TEAEs ([1]; pooled P1+P2, 77 patients): Eight
patients with TEAEs leading to treatment discontinuation ([1]; pooled P1+P2, 77 patients): Four
incidence of TEAEs ([1]; pooled P1+P2, BSEP subtype 1): 77%
incidence of TEAEs ([1]; pooled P1+P2, BSEP subtype 2): 86%
incidence of TEAEs ([1]; pooled P1+P2, patients with PFIC1, placebo in P1 85%): 80%
incidence of TEAEs ([1]; pooled P1+P2, patients with PFIC2): 80%
tolerability ([1]; pooled P1+P2, treatment for up to 48 weeks): well tolerated
patients meeting criteria for serum bile acid response ([2]; patients not using UDCA): 40%
patients meeting criteria for serum bile acid response [2, 4]: 67%
patients meeting criteria for serum bile acid response ([2]; patients not using rifampicin): 82%
patients meeting criteria for serum bile acid response ([2]; patients using UDCA): 74%
patients meeting criteria for serum bile acid response [2, 5]: 67%
patients meeting criteria for serum bile acid response ([2]; patients using rifampicin): 54%
mean proportion of positive pruritus assessments (PPAs) ([2]; patients not using UDCA): 72%
mean proportion of positive pruritus assessments (PPAs) [2, 4]: 69%
mean proportion of positive pruritus assessments (PPAs) ([2]; patients not using rifampicin): 81%
mean proportion of positive pruritus assessments (PPAs) ([2]; patients using UDCA): 65%
mean proportion of positive pruritus assessments (PPAs) [2, 5]: 66%
mean proportion of positive pruritus assessments (PPAs) ([2]; patients using rifampicin): 56%
incidence of TEAEs ([2]; patients not using UDCA): 87%
incidence of TEAEs [2, 4]: 90%
incidence of TEAEs ([2]; patients not using rifampicin): 86%
incidence of TEAEs ([2]; patients using UDCA): 77%
incidence of TEAEs [2, 5]: 78%
incidence of TEAEs ([2]; patients using rifampicin): 75%
Any TEAE, patients ([3]; PEDFIC 1, 40 μg/kg/day, n = 23): 19 (82.6) n (%)
Drug-related TEAE, patients ([3]; PEDFIC 1, 40 μg/kg/day, n = 23): 7 (30.4) n (%)
Drug-related TEAE: ALT increased, patients ([3]; PEDFIC 1, 40 μg/kg/day, n = 23): 2 (8.7) n (%)
Drug-related TEAE: AST increased, patients ([3]; PEDFIC 1, 40 μg/kg/day, n = 23): 2 (8.7) n (%)
Drug-related TEAE: Blood bilirubin increased, patients ([3]; PEDFIC 1, 40 μg/kg/day, n = 23): 2 (8.7) n (%)
Drug-related TEAE: Diarrhea/frequent bowel movements, patients ([3]; PEDFIC 1, 40 μg/kg/day, n = 23): 2 (8.7) n (%)
Liver-related TEAEs, patients ([3]; PEDFIC 1, 40 μg/kg/day, n = 23): 5 (21.7) n (%)
Mild TEAE, patients ([3]; PEDFIC 1, 40 μg/kg/day, n = 23): 11 (47.8) n (%)
Moderate TEAE, patients ([3]; PEDFIC 1, 40 μg/kg/day, n = 23): 7 (30.4) n (%)
Serious TEAEs, patients ([3]; PEDFIC 1, 40 μg/kg/day, n = 23): 0 n (%)
Severe TEAE, patients ([3]; PEDFIC 1, 40 μg/kg/day, n = 23): 1 (4.3) n (%)
TEAEs leading to discontinuation, patients ([3]; PEDFIC 1, 40 μg/kg/day, n = 23): 0 n (%)
Any TEAE, patients [3, 6]: 16 (84.2) n (%)
Drug-related TEAE, patients [3, 6]: 7 (36.8) n (%)
Drug-related TEAE: ALT increased, patients [3, 6]: 2 (10.5) n (%)
Drug-related TEAE: AST increased, patients [3, 6]: 1 (5.3) n (%)
Drug-related TEAE: Blood bilirubin increased, patients [3, 6]: 2 (10.5) n (%)
Drug-related TEAE: Diarrhea/frequent bowel movements, patients [3, 6]: 2 (10.5) n (%)
Liver-related TEAEs, patients [3, 6]: 6 (31.6) n (%)
Mild TEAE, patients [3, 6]: 8 (42.1) n (%)
Moderate TEAE, patients [3, 6]: 6 (31.6) n (%)
Serious TEAEs, patients [3, 6]: 3 (15.8) n (%)
Severe TEAE, patients [3, 6]: 2 (10.5) n (%)
TEAEs leading to discontinuation, patients [3, 6]: 1 (5.3) n (%)
deaths, treatment-related serious AEs, TEAEs related to liver decompensation ([3]; PEDFIC 1, 24 weeks): No deaths, treatment-related serious AEs, or TEAEs related to liver decompensation occurred; also recorded: no deaths or treatment-related serious adverse events
tolerability ([3]; PEDFIC 1, 40 and 120 μg/kg/day over 24 weeks): well tolerated
patients with at least one TEAE ([3]; PEDFIC 1, all doses (35 of 42 patients)): 83%
Any TEAE, patients ([3]; PEDFIC 1, all doses, n = 42): 35 (83.3) n (%)
Drug-related TEAE, patients ([3]; PEDFIC 1, all doses, n = 42): 14 (33.3) n (%)
Drug-related TEAE: ALT increased, patients ([3]; PEDFIC 1, all doses, n = 42): 4 (9.5) n (%)
Drug-related TEAE: AST increased, patients ([3]; PEDFIC 1, all doses, n = 42): 3 (7.1) n (%)
Drug-related TEAE: Blood bilirubin increased, patients ([3]; PEDFIC 1, all doses, n = 42): 4 (9.5) n (%)
Drug-related TEAE: Diarrhea/frequent bowel movements, patients ([3]; PEDFIC 1, all doses, n = 42): 4 (9.5) n (%)
Liver-related TEAEs, patients ([3]; PEDFIC 1, all doses, n = 42): 11 (26.2) n (%)
Mild TEAE, patients ([3]; PEDFIC 1, all doses, n = 42): 19 (45.2) n (%)
Moderate TEAE, patients ([3]; PEDFIC 1, all doses, n = 42): 13 (31.0) n (%)
Serious TEAEs, patients ([3]; PEDFIC 1, all doses, n = 42): 3 (7.1) n (%)
Severe TEAE, patients ([3]; PEDFIC 1, all doses, n = 42): 3 (7.1) n (%)
TEAEs leading to discontinuation, patients ([3]; PEDFIC 1, all doses, n = 42): 1 (2.4) n (%)
TEAE vomiting ([3]; PEDFIC 1, all doses, placebo 0%): 17%
TEAE ALT increase ([3]; PEDFIC 1, all doses, placebo 5%): 14%
TEAE serum bilirubin increase ([3]; PEDFIC 1, all doses, placebo 10%): 12%
TEAE upper respiratory tract infection ([3]; PEDFIC 1, all doses, placebo 15%): 19%
TEAEs considered related to study drug by the investigator ([3]; PEDFIC 1, all doses, placebo 15.0%): 33.3%
TEAE fever ([3]; PEDFIC 1, all doses, placebo 25%): 29%
treatment-related AEs of diarrhea or frequent bowel movement ([3]; PEDFIC 1, odevixibat-treated patients): 9.5%
